Consider eleven compounds from patent US9133104B2 (Chroma Therapeutics Ltd., priority 2005, dated 2015).

The structures appear in SMILES notation. A value given as a limit tells only on which side of the number the result lay.

Test [1] has as its system Hela cancer cell line. The experiment in a line: Cell inhibition assay (SRB cell viability), Hela. The settings on record: Homo sapiens, HeLa, 72 h, Hela cells, IC50 range. It counts as cell-based. Summed up: (§1)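 Log-phase Hela, U937 and HUT cells were seeded at 1000 cells/well, grown 24 h, then exposed to compound (20 uM final) for 72 h. Viability was read by sulphorhodamine B staining and expressed as % inhibition relative to DMSO control. IC50 values came from sigmoidal variable-slope fits of eight concentrations.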

Test [2] concerns HUT cancer cell line. As to the kind of experiment: Cell inhibition assay (SRB cell viability), HUT. The test is classed as cell-based. The settings on record: HUT cells, 72 h, IC50 range. Summed up: as §1
Test [3] deals with T1, histone deacetylase activity (HeLa nuclear extract).
T1 construct: Histone deacetylase activity from crude nuclear extract derived from HeLa cells was used for screening
As to the kind of experiment: HDAC fluorescent activity assay (Biomol Fluor de Lys), HeLa nuclear extract. The test is classed as biochemical. The settings on record: Fluor de Lys substrate, IC50 range. Summed up: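 Crude HeLa nuclear extract (20 mM Hepes, 100 mM KCl, 0.2 mM EDTA, 0.5 mM DTT, 0.2 mM PMSF, 20% glycerol) incubated with acetyl-lysine Fluor de Lys substrate ± inhibitor; developer generates fluorophore. Background-subtracted % of vehicle control; IC50 from eight-point variable-slope sigmoidal fit.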

In test [4] the test system is U937 cancer cell line. As to the kind of experiment: Cell inhibition assay (SRB cell viability), U937. The test is classed as cell-based. As to conditions: Homo sapiens, U-937, U937 cells, 72 h, IC50 range. Summed up:
as §1

By IC50 is commonly meant the concentration that gives 50% inhibition. The low end stands for greater potency, the high end for weaker potency. Consider `CC(C)(C)SC[C@H](NCc1ccc(CNCc2ccc3cc(C(=O)NO)sc3c2)cc1)C(=O)OC1CCCC1` [Compound 113, (R)-3-tert-Butylsulfanyl-2-(4-{[(2-hydroxycarbamoyl-benzo[b]thiophen-6-ylmethyl)-amino]-methyl}-benzylamino)-propionic acid cyclopentyl ester], for which the IC50 in test [1] lay in the range of 330 to 3300 nM; in test [2], 330 to 3300 nM; in test [3] it was 101 to 1000 nM; in test [4], 330 to 3300 nM.

As for `CC(C)(C)[C@H](NCc1ccc(CNCc2ccc3cc(C(=O)NO)sc3c2)cc1)C(=O)OC1CCCC1` [Compound 115, (S)-2-(4-{[(2-Hydroxycarbamoyl-benzo[b]thiophen-6-ylmethyl)-amino]-methyl}-benzylamino)-3,3-dimethyl-butyric acid cyclopentyl ester], the IC50 in test [1] was in the range of 330 to 3300 nM; in test [2], 330 to 3300 nM; in test [3] it was 101 to 1000 nM; in test [4], 330 to 3300 nM.

For the compound `O=C(NO)c1cc2ccc(CNCc3ccc(CN[C@H](C(=O)OC4CCCC4)C4CCCCC4)cc3)cc2s1` [Compound 116, (S)-Cyclohexyl-(4-{[(2-hydroxycarbamoyl-benzo[b]thiophen-6-ylmethyl)-amino]-methyl}-benzylamino)-acetic acid cyclopentyl ester], the IC50 is over 3300 nM in test [1], over 3300 nM in test [2], 101 to 1000 nM in test [3] and 330 to 3300 nM in test [4].

With `C[C@H](NCc1ccc(CNCc2ccc3cc(C(=O)NO)sc3c2)cc1)C(=O)OC1CCCC1` [Compound 118, (S)-2-(4-{[(2-Hydroxycarbamoyl-benzo[b]thiophen-6-ylmethyl)-amino]-methyl}-benzylamino)-propionic acid cyclopentyl ester], the IC50 was under 330 nM in test [1], under 330 nM in test [2], under 100 nM in test [3] and under 330 nM in test [4].

With `CC(C)C[C@H](NCc1ccc(CNCc2ccc3cc(C(=O)NO)sc3c2)cc1)C(=O)OC1CCCC1` [Compound 122], the IC50 in test [1] is 330 to 3300 nM; in test [2], 330 to 3300 nM; in test [3] it was under 100 nM; in test [4], under 330 nM.

As for `O=C(NO)c1cc2ccc(CNCc3ccc(CN[C@H](C(=O)OC4CCCC4)c4ccccc4)cc3)cc2s1` [Compound 124, (S)-(4-{[(2-Hydroxycarbamoyl-benzo[b]thiophen-6-ylmethyl)-amino]-methyl}-benzylamino)-phenyl-acetic acid cyclopentyl ester], the IC50 in test [1] is 330 to 3300 nM; in test [2], 330 to 3300 nM; in test [3] it was 101 to 1000 nM; in test [4], under 330 nM.

On to `CC(C)C[C@H](NCC1CCC(CNCc2ccc3cc(C(=O)NO)sc3c2)CC1)C(=O)OC1CCCC1` (stereo partly drawn) [Compound 128, (S)-2-[(4-{[(2-Hydroxycarbamoyl-benzo[b]thiophen-6-ylmethyl)-amino]-methyl}-cyclohexylmethyl)-amino]-4-methyl-pentanoic acid cyclopentylester], for which the IC50 in test [1] was 330 to 3300 nM; in test [2], under 330 nM; in test [3] it was 101 to 1000 nM; in test [4] it was under 330 nM.

Take `O=C(NO)c1cc2ccc(CNc3cccc(CN[C@H](C(=O)OC4CCCC4)c4ccccc4)c3)cc2s1` [Compound 130, (S)-{3-[(2-Hydroxycarbamoyl-benzo[b]thiophen-6-ylmethyl)-amino]-benzyl-amino}-phenyl-acetic acid cyclopentyl ester]: the IC50 in test [1] is over 3300 nM; in test [2] it was over 3300 nM; in test [3], over 1000 nM; in test [4], 330 to 3300 nM.

As for `O=C(NO)c1cc2ccc(CNc3cccc(CN[C@H](C(=O)OC4CCCC4)C4CCCCC4)c3)cc2s1` [Compound 131, (S)-{3-[(2-Hydroxycarbamoyl-benzo[b]thiophen-6-ylmethyl)-amino]-benzylamino}-cyclohexyl-acetic acid cyclopentyl ester], the IC50 was over 3300 nM in test [1], over 3300 nM in test [2], over 1000 nM in test [3] and 330 to 3300 nM in test [4].

For the compound `CC(C)(C)OC[C@H](NCc1cccc(NCc2ccc3cc(C(=O)NO)sc3c2)c1)C(=O)OC1CCCC1` [Compound 132, (S)-3-tert-Butoxy-2-{3-[(2-hydroxycarbamoyl-benzo[b]thiophen-6-ylmethyl)-amino]-benzylamino}-propionic acid cyclopentyl ester], the 50% inhibitory concentration (IC50) in test [1] was over 3300 nM; in test [2], 330 to 3300 nM; in test [3] it was 101 to 1000 nM; in test [4], 330 to 3300 nM.

Take `CC(C)C[C@H](NCc1cccc(NCc2ccc3cc(C(=O)NO)sc3c2)c1)C(=O)OC1CCCC1` [Compound 133, (S)-2-{3-[(2-Hydroxycarbamoyl-benzo[b]thiophen-6-ylmethyl)-amino]-benzylamino}-4-methyl-pentanoic acid cyclopentyl ester]: the IC50 was 330 to 3300 nM in test [1], over 3300 nM in test [2], 101 to 1000 nM in test [3] and 330 to 3300 nM in test [4].
